Measured values taken from PMC9527238, “Glutamate and GABAA receptor crosstalk mediates homeostatic regulation of neuronal excitation in the mammalian brain” (Signal Transduction and Targeted Therapy, 2022).

How the values were obtained:
α1^K104D β2 γ2 GABAAR = target: T1, α1^K104D β2 γ2 GABAAR (Rattus norvegicus, UniProt P62813+P63138, K131D); assay: Patch clamp, HEK293, mutant GABAAR; assay type: cell-based
T1 construct: expressed in transfected cells; host or cells: HEK293
Description: (§1) The subunits are color-coded individually. The boxed regions are further enlarged in the middle panels, highlighting the predicted glutamate binding pocket in the α+ and β− interface, just below the loop C. […] Relative potentiation was obtained by normalizing potentiation observed in the mutated receptor to that in the respective wild-type receptor.
(§2) To positively confirm one of these two putative binding sites involved in glutamate binding, we performed a systemic mutational analysis of critical amino acids around these two sites followed by electrophysiological characterizations of their impacts on glutamate potentiation in HEK293 cells expressing wild-type or mutated α1β2γ2 GABAARs (Table 1).
(§3) HEK293 cells were cultured in DMEM (Invitrogen) supplemented with 10% fetal bovine serum. Cells were grown to 40–60% confluence and transiently transfected using Lipofectamine 2000 (Invitrogen) with 1:0.5–1 plasmid/lipid ratio. Cells were transfected with a pBK-CMV expression vector containing a rat recombinant GABAAR α, β or γ subunits. Co-transections were done with a plasmid ratio of 1:1 αβ and 2:2:1 for αβγ subunit combinations, respectively. pcDNA3.1-GFP was also co-transfected along with GABAAR subunits as a transfected marker in order to facilitate the visualization of the transfected cells during electrophysiological experiments. Cells were re-plated on glass coverslips after 15–20 h transfection and were cultured for an additional 15–24 h before whole-cell patch-clamp recordings.
(§4) The site-directed mutagenesis of α, β or γ subunits were performed by using the QuikChange method (Stratagene). […] Wild-type or mutant subunits were transfected in HEK293 cells and subjected to electrophysiology examinations.
(§5) Whole-cell patch-clamp recordings were performed under voltage-clamp mode using an Axopatch 200B or 1D patch-clamp amplifier (Molecular Devices) on HEK293 cells and cultured neurons. Whole-cell currents were recorded at a holding potential of −60 mV, and signals were filtered at 2 kHz, digitized at 10 kHz (Digidata 1322 A). Recording pipettes (3–5 MΩ) were filled with the intracellular solution that contained (mM): CsCl 140, HEPES 10, Mg-ATP 4, QX-314 5, pH 7.20; osmolarity, 290–295 mOsm. BAPTA (10 mM) was added in the intracellular solution. The coverslips were continuously superfused with the extracellular solution containing (mM): NaCl 140, KCl 5.4, HEPES 10, MgCl2 1.0, CaCl2 1.3, glucose 20, pH 7.4; osmolarity, 305–315 mOsm. […] Dose–response curves were created by fitting data to Hill equation: I = Imax/[1 + (EC50/[A])^n], where I is the current, Imax is the maximum current, [A] is a given concentration of agonist, n is the Hill coefficient. […] All experiments were performed at room temperature.

α1 β2^E181G γ2 GABAAR = target: T2, α1 β2^E181G γ2 GABAAR (Rattus norvegicus, UniProt P62813+P63138, E206G); assay: Patch clamp, HEK293, mutant GABAAR; assay type: cell-based
T2 construct: expressed in transfected cells; host or cells: HEK293
Description: as §1, §2, §3, §4, §5

α1^K155D β2 γ2 GABAAR = target: T3, α1^K155D β2 γ2 GABAAR (Rattus norvegicus, UniProt P62813+P63138, K182D); assay: Patch clamp, HEK293, mutant GABAAR; assay type: cell-based; details: GABA-evoked currents
T3 construct: expressed in transfected cells; host or cells: HEK293
Description: as §1, §2, §3, §4, §5

α1β2 GABAARs = target: T4, α1β2 GABAARs (Rattus norvegicus, UniProt P62813+P63138); assay: [3H]glutamate binding assay, plasma membranes of HEK293 cells overexpressing α1 and β2; details: 40 nM [3H]glutamate + 0.4 mM non-radiolabeled competitor
T4 construct: expressed in transfected cells; host or cells: HEK293
Description: For membrane preparation, transfected or non-transfected HEK293 cells were washed twice with cold PBS and harvested by scraping into 5 ml cold PBS. Cells were then centrifuged at 1200 × g for 12 min at 4 °C and medium was removed. The washing procedure was repeated twice. Then the cell pellet was re-suspended into 1 ml of 50 mM Tris-HCl buffer (pH 7.4, with protease inhibitor) and homogenized using syringes with 18-G, 21-G and 23-G needles.
To separate the membrane, the homogenate were centrifuged for 20 min at 20,000 × g at 4 °C. Then the pellet was re-suspended into 1 ml of 50 mM Tris-HCl buffer, pH 7.4 and centrifuged again. After repeating this procedure for one more time, the pellet was re-suspended into 1 ml of 50 mM Tris-HCl buffer, pH 7.4 and the protein concentration was measured.
To conduct the binding assay, 100 µg membrane enriched preparation was incubated with 40 nM [3H]-Glutamate in a total volume of 0.5 ml in 50 mM Tris-HCl buffer, pH 7.4 for 1 h on ice. […] Then the reaction was terminated by quickly filtering the solution on Whatman filter paper and washing by 3.5 ml Tris-HCl buffer. Radioactivity was measured in a Beckman liquid scintillation counter.

α1^E208A β2 γ2 GABAAR = target: T5, α1^E208A β2 γ2 GABAAR (Rattus norvegicus, UniProt P62813+P63138, E235A); assay: Patch clamp, HEK293, mutant GABAAR; assay type: cell-based; details: GABA-evoked currents
T5 construct: expressed in transfected cells; host or cells: HEK293
Description: as §2, §3, §4, §5

α1^S158A β2 γ2 GABAAR = target: T6, α1^S158A β2 γ2 GABAAR (Rattus norvegicus, UniProt P62813+P63138, S185A); assay: Patch clamp, HEK293, mutant GABAAR; assay type: cell-based; details: GABA-evoked currents
T6 construct: expressed in transfected cells; host or cells: HEK293
Description: as §2, §3, §4, §5

α1^T206A β2 γ2 GABAAR = target: T7, α1^T206A β2 γ2 GABAAR (Rattus norvegicus, UniProt P62813+P63138, T233A); assay: Patch clamp, HEK293, mutant GABAAR; assay type: cell-based; details: GABA-evoked currents
T7 construct: expressed in transfected cells; host or cells: HEK293
Description: as §2, §3, §4, §5

α1^F99A β2 γ2 GABAAR = target: T8, α1^F99A β2 γ2 GABAAR (Rattus norvegicus, UniProt P62813+P63138, F126A); assay: Patch clamp, HEK293, mutant GABAAR; assay type: cell-based; details: GABA-evoked currents
T8 construct: expressed in transfected cells; host or cells: HEK293
Description: as §2, §3, §4, §5

α1 β2^Q63A γ2 GABAAR = target: T9, α1 β2^Q63A γ2 GABAAR (Rattus norvegicus, UniProt P62813+P63138, Q88A); assay: Patch clamp, HEK293, mutant GABAAR; assay type: cell-based
T9 construct: expressed in transfected cells; host or cells: HEK293
Description: as §2, §3, §4, §5

α1 β2^Y61A γ2 GABAAR = target: T10, α1 β2^Y61A γ2 GABAAR (Rattus norvegicus, UniProt P62813+P63138, Y86A); assay: Patch clamp, HEK293, mutant GABAAR; assay type: cell-based
T10 construct: expressed in transfected cells; host or cells: HEK293
Description: as §2, §3, §4, §5

α1 β2^G126A γ2 GABAAR = target: T11, α1 β2^G126A γ2 GABAAR (Rattus norvegicus, UniProt P62813+P63138, G151A); assay: Patch clamp, HEK293, mutant GABAAR; assay type: cell-based
T11 construct: expressed in transfected cells; host or cells: HEK293
Description: as §2, §3, §4, §5

α1 β2 ^I180A γ2 GABAAR = target: T12, α1 β2 ^I180A γ2 GABAAR (Rattus norvegicus, UniProt P62813+P63138, I205A); assay: Patch clamp, HEK293, mutant GABAAR; assay type: cell-based; details: GABA-evoked currents
T12 construct: expressed in transfected cells; host or cells: HEK293
Description: as §2, §3, §4, §5

α1^Y159A β2 γ2 GABAAR = target: T13, α1^Y159A β2 γ2 GABAAR (Rattus norvegicus, UniProt P62813+P63138, Y186A); assay: Patch clamp, HEK293, mutant GABAAR; assay type: cell-based; details: GABA-evoked currents
T13 construct: expressed in transfected cells; host or cells: HEK293
Description: as §2, §3, §4, §5

α1^S205A β2 γ2 GABAAR = target: T14, α1^S205A β2 γ2 GABAAR (Rattus norvegicus, UniProt P62813+P63138, S232A); assay: Patch clamp, HEK293, mutant GABAAR; assay type: cell-based; details: GABA-evoked currents
T14 construct: expressed in transfected cells; host or cells: HEK293
Description: as §2, §3, §4, §5

α1 β2^V177A γ2 GABAAR = target: T15, α1 β2^V177A γ2 GABAAR (Rattus norvegicus, UniProt P62813+P63138, V202A); assay: Patch clamp, HEK293, mutant GABAAR; assay type: cell-based
T15 construct: expressed in transfected cells; host or cells: HEK293
Description: as §2, §3, §4, §5

α1^H101A β2 γ2 GABAAR = target: T16, α1^H101A β2 γ2 GABAAR (Rattus norvegicus, UniProt P62813+P63138, H128A); assay: Patch clamp, HEK293, mutant GABAAR; assay type: cell-based; details: GABA-evoked currents
T16 construct: expressed in transfected cells; host or cells: HEK293
Description: as §2, §3, §4, §5

NCCCC(=O)O [GABA, gamma-Aminobutyric acid]
Hill Slope (α1^K104D β2 γ2 GABAAR; GABA dose-response): 1.70 ± 0.17
Imax (nA) (α1^K104D β2 γ2 GABAAR; GABA-evoked currents): 2.3 ± 0.7 nA
Hill Slope (α1 β2^E181G γ2 GABAAR; GABA dose-response): 1.59 ± 0.14
Imax (nA) (α1 β2^E181G γ2 GABAAR; GABA-evoked currents): 1.1 ± 0.2 nA
Imax (nA) (α1^K155D β2 γ2 GABAAR): 1.3 ± 0.5 nA
[3H]glutamate binding activity in presence of competitor (α1β2 GABAARs): 939.2 ± 88.8 CPM
Imax (nA) (α1^E208A β2 γ2 GABAAR): 1.8 ± 0.8 nA
Imax (nA) (α1^S158A β2 γ2 GABAAR): 1.3 ± 0.5 nA
Imax (nA) (α1^T206A β2 γ2 GABAAR): 1.9 ± 0.8 nA
Imax (nA) (α1^F99A β2 γ2 GABAAR): 1.0 ± 0.7 nA
Hill Slope (α1 β2^Q63A γ2 GABAAR; GABA dose-response): 2.09 ± 0.93
Imax (nA) (α1 β2^Q63A γ2 GABAAR; GABA-evoked currents): 1.0 ± 0.5 nA
Hill Slope (α1 β2^Y61A γ2 GABAAR; GABA dose-response): 2.91 ± 1.30
Imax (nA) (α1 β2^Y61A γ2 GABAAR; GABA-evoked currents): 1.0 ± 0.5 nA
Hill Slope (α1 β2^G126A γ2 GABAAR; GABA dose-response): 2.28 ± 0.74
Imax (nA) (α1 β2^G126A γ2 GABAAR; GABA-evoked currents): 1.3 ± 0.4 nA
Imax (nA) (α1 β2 ^I180A γ2 GABAAR): 1.7 ± 0.4 nA
Imax (nA) (α1^Y159A β2 γ2 GABAAR): 1.1 ± 0.5 nA
Imax (nA) (α1^S205A β2 γ2 GABAAR): 2.3 ± 1.1 nA
Hill Slope (α1 β2^V177A γ2 GABAAR; GABA dose-response): 1.12 ± 0.37
Imax (nA) (α1 β2^V177A γ2 GABAAR; GABA-evoked currents): 1.7 ± 0.9 nA
Imax (nA) (α1^H101A β2 γ2 GABAAR): 0.9 ± 0.5 nA
